biological target: T1, CCR1 (Homo sapiens, UniProt P32246); test: Method A: calcium flux in CCR1 transfected cells (Fluo-4 NW, FLIPR TETRA), block of the CCR1/MIP-1α interaction; assay type: cell-based; details: Method A: Fluo-4 NW, MIP-1 alpha at EC80
T1 sequence (P32246 1-355): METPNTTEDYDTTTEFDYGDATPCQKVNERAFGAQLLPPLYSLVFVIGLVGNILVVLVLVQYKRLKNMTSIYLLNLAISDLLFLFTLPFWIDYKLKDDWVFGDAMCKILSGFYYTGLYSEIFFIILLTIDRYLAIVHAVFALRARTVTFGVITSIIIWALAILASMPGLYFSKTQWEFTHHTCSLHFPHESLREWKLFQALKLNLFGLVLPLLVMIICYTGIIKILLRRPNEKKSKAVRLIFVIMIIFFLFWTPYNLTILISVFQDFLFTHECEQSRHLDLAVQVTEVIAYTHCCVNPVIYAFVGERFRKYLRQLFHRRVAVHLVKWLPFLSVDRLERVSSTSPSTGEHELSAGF
Procedure: Compounds are assessed for the ability to block the interaction of CCR1 and MIP-1α in a functional cellular assay measuring calcium flux in CCR1 transfected cells.
Method A: Non-adherent cells purchased from Chemicon Corporation (HTS005C), stably expressing recombinant CCR1 and G-alpha-16 are grown in RPMI 1640 medium (Mediatech 10-080-CM) supplemented with 10% heat-inactivated FBS, 0.4 mg/mL Geneticin and penicillin/streptomycin. On the day of the assay, the cells are transferred to a beaker and dye-loaded in bulk using a Fluo-4 NW Calcium Assay Kit with probenecid (Invitrogen F36205) at 0.8E6 cells/mL for 1 hour at room temperature. After 1 hour, they are seeded in a 384-well tissue culture-treated plate at a density of 20,000 cells/well. Appropriately diluted test compound is added to the well to achieve a top concentration of 3,000 nM (diluted 4-fold with 10 doses total). The final concentration of DMSO is 1%. The buffer is HBSS (Invitrogen 14025) with 20 mM HEPES at pH 7.4. The cells are allowed to incubate 1 hour in the dark at room temperature. The plates are transferred to the FLIPR TETRA where MIP-1 alpha in 1% BSA is added at the EC80 final concentration. Wells+/−MIP-1 alpha containing diluted DMSO instead of compound serve as the controls. Intracellular calcium flux is recorded on the FLIPR TETRA, using excitation at 470/495 nm and emission at 515/575 nm. Data are analyzed using Activity Base software.

Going from `CNS(=O)(=O)c1cc(CNC(=O)c2cncc3c2cnn3-c2ccc(F)cc2)ccc1OC` [1-(4-Fluorophenyl)-1H-pyrazolo[3,4-c]pyridine-4-carboxylic acid 4-methoxy-3-methylsulfamoyl-benzylamide] to `CS(=O)(=O)Nc1ccc(CNC(=O)c2cncc3c2cnn3-c2ccc(F)cc2)cn1` [1-(4-Fluorophenyl)-1H-pyrazolo[3,4-c]pyridine-4-carboxylic acid (6-methanesulfonylamino-pyridin-3-ylmethyl)-amide], the IC50 rises from 12 nM to 25 nM (2.1-fold).

Going from `CN1CCC(N(C)S(=O)(=O)Cc2ccc(CNC(=O)c3cncc4c3cnn4-c3ccc(F)cc3)cc2)CC1` [1-(4-Fluorophenyl)-1H-pyrazolo[3,4-c]pyridine-4-carboxylic acid 4-{[methyl-(1-methyl-piperidin-4-yl)-sulfamoyl]-methyl}-benzylamide] to `CN(C)S(=O)(=O)c1ccc(CNC(=O)c2cncc3c2cnn3-c2ccc(F)cc2)cn1` [1-(4-Fluorophenyl)-1H-pyrazolo[3,4-c]pyridine-4-carboxylic acid (6-dimethylsulfamoyl-pyridin-3-ylmethyl)-amide], the IC50 falls from 33 nM to 1 nM (33-fold).

`O=C(NCc1ccnc(Br)c1)c1cncc2c1cnn2-c1ccc(F)cc1` [1-(4-Fluorophenyl)-1H-pyrazolo[3,4-c]pyridine-4-carboxylic acid (2-bromopyridin-4-ylmethyl)-amide] and `COc1cc(CNC(=O)c2cncc3c2cnn3-c2ccc(F)cc2)ccn1` [1-(4-Fluorophenyl)-1H-pyrazolo[3,4-c]pyridine-4-carboxylic acid (2-methoxy-pyridin-4-ylmethyl)-amide] are the same in IC50: 2 nM for the first, 2 nM for the second.

First: NS(=O)(=O)c1cc(CNC(=O)c2cncc3c2cnn3-c2ccc(F)cc2)ccn1 [1-(4-Fluorophenyl)-1H-pyrazolo[3,4-c]pyridine-4-carboxylic acid (2-sulfamoyl-pyridin-4-ylmethyl)-amide]
Second: CCS(=O)(=O)c1ccc(CNC(=O)c2cncc3c2cnn3-c2ccc(F)cc2)cn1 [1-(4-Fluorophenyl)-1H-pyrazolo[3,4-c]pyridine-4-carboxylic acid (6-ethanesulfonyl-pyridin-3-ylmethyl)-amide]
The IC50 of the first is 2.4-fold lower: 13 nM for the first, 31 nM for the second. The first is the more potent here.

Going from `O=C(NCc1cncc(Br)c1)c1cncc2c1cnn2-c1ccc(F)cc1` [1-(4-Fluorophenyl)-1H-pyrazolo[3,4-c]pyridine-4-carboxylic acid (5-bromopyridin-3-ylmethyl)-amide] to `CCCC(NC(=O)c1cncc2c1cnn2-c1ccc(F)cc1)c1cncc(Br)c1` (stereo not drawn) [1-(4-Fluorophenyl)-1H-pyrazolo[3,4-c]pyridine-4-carboxylic acid [1-(5-bromopyridin-3-yl)-butyl]-amide], the IC50 falls from 13 nM to 0.4 nM (32-fold).

First: CS(=O)(=O)c1cccc(CNC(=O)c2cncc3c2cnn3-c2ccc(F)cc2)n1 [1-(4-Fluorophenyl)-1H-pyrazolo[3,4-c]pyridine-4-carboxylic acid (6-methanesulfonyl-pyridin-2-ylmethyl)-amide]
Second: CC(NC(=O)c1cncc2c1cnn2-c1ccc(F)cc1)c1ccc(S(C)(=O)=O)nc1 (stereo not drawn) [1-(4-Fluorophenyl)-1H-pyrazolo[3,4-c]pyridine-4-carboxylic acid [1-(6-methanesulfonyl-pyridin-3-yl)-ethyl]-amide]
The IC50 of the first is 4.3-fold higher: 39 nM for the first, 9 nM for the second. The second is the more potent here.

Compared with `CCC[C@H](NC(=O)c1cncc2c1cnn2-c1ccc(F)cc1)c1cccnc1` [1-(4-Fluorophenyl)-1H-pyrazolo[3,4-c]pyridine-4-carboxylic acid ((S)-1-pyridin-3-yl-butyl)-amide], `CCCC(NC(=O)c1cncc2c1cnn2-c1ccc(F)cc1)c1ccnc(Br)c1` (stereo not drawn) [1-(4-Fluorophenyl)-1H-pyrazolo[3,4-c]pyridine-4-carboxylic acid [1-(2-bromopyridin-4-yl)-butyl]-amide] is 12-fold lower in IC50: 5 nM for the first, 0.4 nM for the second.

Going from `CC(NC(=O)c1cncc2c1cnn2-c1ccc(F)cc1)c1ccnc(Br)c1` (stereo not drawn) [1-(4-Fluorophenyl)-1H-pyrazolo[3,4-c]pyridine-4-carboxylic acid [1-(2-bromopyridin-4-yl)-ethyl]-amide] to `CCC(NC(=O)c1cncc2c1cnn2-c1ccc(F)cc1)c1ccnc(Br)c1` (stereo not drawn) [1-(4-Fluorophenyl)-1H-pyrazolo[3,4-c]pyridine-4-carboxylic acid [1-(2-bromopyridin-4-yl)-propyl]-amide], the IC50 falls from 1 nM to 0.4 nM (2.5-fold).

`CCCC(NC(=O)c1cncc2c1cnn2-c1ccc(F)cc1)c1ccnc(S(=O)(=O)CC)c1` (stereo not drawn) [1-(4-Fluorophenyl)-1H-pyrazolo[3,4-c]pyridine-4-carboxylic acid [1-(2-ethanesulfonyl-pyridin-4-yl)-butyl]-amide] and `CCCC(NC(=O)c1cncc2c1cnn2-c1ccc(F)cc1)c1ccc(S(C)(=O)=O)nc1` (stereo not drawn) [1-(4-Fluorophenyl)-1H-pyrazolo[3,4-c]pyridine-4-carboxylic acid [1-(6-methanesulfonyl-pyridin-3-yl)-butyl]-amide] are the same in IC50: 0.8 nM for the first, 0.8 nM for the second.

`CCCC(NC(=O)c1cncc2c1cnn2-c1ccc(F)cc1)c1cncc(S(C)(=O)=O)c1` (stereo not drawn) [1-(4-Fluorophenyl)-1H-pyrazolo[3,4-c]pyridine-4-carboxylic acid [1-(5-methanesulfonyl-pyridin-3-yl)-butyl]-amide] and `CCCC(NC(=O)c1cncc2c1cnn2-c1ccc(F)cc1)c1cncc(S(N)(=O)=O)c1` (stereo not drawn) [1-(4-Fluorophenyl)-1H-pyrazolo[3,4-c]pyridine-4-carboxylic acid [1-(5-sulfamoyl-pyridin-3-yl)-butyl]-amide] are within 1.5-fold of each other in IC50: 0.6 nM for the first, 0.4 nM for the second.

Compared with `CCCC(NC(=O)c1cncc2c1cnn2-c1ccc(F)cc1)c1cncc(S(=O)(=O)NC)c1` (stereo not drawn) [1-(4-Fluorophenyl)-1H-pyrazolo[3,4-c]pyridine-4-carboxylic acid [1-(5-methylsulfamoyl-pyridin-3-yl)-butyl]-amide], `CCC(NC(=O)c1cncc2c1cnn2-c1ccc(F)cc1)c1ccc(S(C)(=O)=O)nc1` (stereo not drawn) [1-(4-Fluorophenyl)-1H-pyrazolo[3,4-c]pyridine-4-carboxylic acid [1-(6-methanesulfonyl-pyridin-3-yl)-propyl]-amide] is 6-fold higher in IC50: 0.5 nM for the first, 3 nM for the second. The first is the more potent here.

`CC(NC(=O)c1cncc2c1cnn2-c1ccc(F)cc1)c1ccc(Br)nc1` (stereo not drawn) [1-(4-Fluorophenyl)-1H-pyrazolo[3,4-c]pyridine-4-carboxylic acid [1-(6-bromopyridin-3-yl)-ethyl]-amide] and `CN(C)S(=O)(=O)Nc1ccc(CNC(=O)c2cncc3c2cnn3-c2ccc(F)cc2)cn1` [1-(4-Fluorophenyl)-1H-pyrazolo[3,4-c]pyridine-4-carboxylic acid [6-(dimethylamino-sulfonylamino)-pyridin-3-ylmethyl]-amide] are within 1.5-fold of each other in IC50: 30 nM for the first, 24 nM for the second.

Compared with `O=C(NCc1ccc(N2CCCCS2(=O)=O)nc1)c1cncc2c1cnn2-c1ccc(F)cc1` [1-(4-Fluorophenyl)-1H-pyrazolo[3,4-c]pyridine-4-carboxylic acid [6-(1,1-dioxo-1λ6-perhydro-1,2-thiazin-2-yl)-pyridin-3-ylmethyl]-amide], `CN(C)S(=O)(=O)N(C)c1ccc(CNC(=O)c2cncc3c2cnn3-c2ccc(F)cc2)cn1` [1-(4-Fluorophenyl)-1H-pyrazolo[3,4-c]pyridine-4-carboxylic acid [6-(dimethylamino-sulfonylmethylamino)-pyridin-3-ylmethyl]-amide] is 9-fold lower in IC50: 9 nM for the first, 1 nM for the second.

With `COCCNS(=O)(=O)c1ccc(CNC(=O)c2cncc3c2cnn3-c2ccc(F)cc2)cn1` [1-(4-Fluorophenyl)-1H-pyrazolo[3,4-c]pyridine-4-carboxylic acid [6-(2-methoxy-ethylsulfamoyl)-pyridin-3-ylmethyl]-amide] the IC50 was 9 nM.

From patent publication US8063065B2, “Azaindazole compounds as CCR1 receptor antagonists” (Boehringer Ingelheim International GmbH, priority 2008, dated 2011)
